Reference: patent US20090041778A1, “Methods And Compositions For The Treatment Of Graft Failure” (priority 2004, published 2009)
In brackets after ≈: the same amount, converted by molar mass. Entries after “also recorded” stand apart in the source; their conditions may differ. Structures can show the parent of a compound that is named as a salt.

Key:
neointimal hyperplasia = details: rabbit carotid artery balloon angioplasty and vein graft intimal hyperplasia models; cited from earlier work
[1] = system: cells of porcine origin from a primary explant of porcine carotid artery; assay: PDGF-induced migration of cells of porcine origin (Boyden chamber); format: cell-based; details: hPDGF-BB 20 ng/ml; second passage cells; dose dependent
Method: (§1) The cells were then cultured in the presence of these agents for forty-eight hours prior to the migration assay. […] Each well contained an insert with a polycarbonate filter having 8 μm pores. In preparation for the migration assays, the membranes were coated with 0.1% gelatin for 8 hours, aspirated, and allowed to dry for 2 hours.
(§2) The M-199 media containing 0.5% BSA and 20 ng/ml human PDGF-B (hPDGF-BB) was placed in the bottom Boyden chamber. Cells were incubated at 5% CO2 at 37° C. for twelve hours and the cells lying on the upper surface of the membrane were scraped off. The insert membranes were removed and the cells on the lower surface of each membrane were stained with hematoxylin. Cell migration was then quantified by counting the cells in five random high-power fields on the lower surface of the membrane. All assays were run in triplicate.

[2] = system: human aortic vascular smooth muscle cell (HASOM cells); assay: PDGF-induced migration of HASOM cells in a 24-well Boyden chamber; format: cell-based
Method: as §1, §2

[3] = system: neointimal hyperplasia in mouse vein grafts; details: administered locally; cited from earlier work
[4] = system: intimal thickening after balloon angioplasty; details: rabbit model; administered systemically; cited from earlier work
[5] = Solubility in aqueous buffer / hydrophilicity; format: physicochemical
[6] = cited from earlier work

## COc1cccc(CCc2ccccc2OCC(CN(C)C)OC(=O)CCC(=O)O)c1.Cl (stereo not drawn) [Anplag]
Neointimal hyperplasia
  prevention of neointimal hyperplasia: effective

## Cc1ccc(NC(=O)c2ccc(CN3CCN(C)CC3)cc2)cc1Nc1nccc(-c2cccnc2)n1 [Gleevec, imatinib mesylate]
[1]
  inhibition of PDGF-B induced migration of porcine cells: inhibited
[2]; hPDGF-BB 20 ng/ml, 48 h drug pre-treatment, 12 h migration, dose dependent
  inhibition of PDGF induced migration of HASOM cells: potently inhibited; also recorded: inhibited migration

## O=C(c1ccc(F)cc1)C1CCN(CCn2c(=O)[nH]c3ccccc3c2=O)CC1 [Ketanserin]
Neointimal hyperplasia
  prevention of neointimal hyperplasia: effective

## Cc1ccc(C(=O)Nc2ccc(S(=O)(=O)O)c3cc(S(=O)(=O)O)cc(S(=O)(=O)O)c23)cc1NC(=O)c1cccc(NC(=O)Nc2cccc(C(=O)Nc3cc(C(=O)Nc4ccc(S(=O)(=O)O)c5cc(S(=O)(=O)O)cc(S(=O)(=O)O)c45)ccc3C)c2)c1 [Suramin]
[3]
  inhibition of neointimal hyperplasia in mouse vein grafts: effective
[4]
  inhibition of intimal thickening after balloon angioplasty: inhibit intimal thickening

## CO[C@H]1C[C@@H]2CC[C@@H](C)[C@@](O)(O2)C(=O)C(=O)N2CCCC[C@H]2C(=O)O[C@H]([C@H](C)C[C@@H]2CC[C@@H](O)[C@H](OC)C2)CC(=O)[C@H](C)/C=C(\C)[C@@H](O)[C@@H](OC)C(=O)[C@H](C)C[C@H](C)/C=C/C=C/C=C/1C [rapamycin]
[5]
  hydrophilicity: very hydrophilic
[6]
  absorption after oral administration: absorbed rapidly and completely
[2]; Homo sapiens, in vitro VSMC migration, read-out: IC50 for blocking VSMC migration
  IC50: 1 to 5 ng/mL (≈ 1.09 to 5.47 nM)
